Measured values: patent publication US20240270762A1, “PENICILLIN-BINDING PROTEIN INHIBITORS” (priority 2021, published 2024)
Converted amounts (≈) assume the structure as drawn. Like-named read-outs stand apart in the source and are kept apart here.

How the values were obtained:
[1] = tested on: B. humptydooensis ATCC BAA-2767; experiment: microbe, parasite or virus in culture; type: cell-based; details: Burkholderia humptydooensis, ATCCBAA2767, read-out: Minimum inhibitory concentration (MIC), B. humptydooensis ATCC BAA-2767
A. baumannii CDC-0045 = experiment: microbe, parasite or virus in culture; type: cell-based; details: Acinetobacter baumannii, CDC0045, read-out: MIC, A. baumannii CDC-0045
P. aeruginosa ATCC 35151 = experiment: microbe, parasite or virus in culture; type: cell-based; details: Pseudomonas aeruginosa, ATCC35151, read-out: Minimum inhibitory concentration, P. aeruginosa ATCC 35151
[2] = tested on: P. aeruginosa (ΔmexAB-oprM); experiment: Broth microdilution MIC in iron-depleted CAMHB (IDM); type: cell-based; details: Pseudomonas aeruginosa; iron-depleted CAMHB (IDM); […]; read-out: Minimum inhibitory concentration, P. aeruginosa ΔmexAB-oprM
P. aeruginosa ATCC 27853 = experiment: microbe, parasite or virus in culture; type: cell-based; details: Pseudomonas aeruginosa, ATCC27853, read-out: Minimum inhibitory concentration, P. aeruginosa ATCC 27853
N. gonorrhoeae MS11 = experiment: Liquid broth MIC in Fastidious broth; details: Neisseria gonorrhoeae
P. aeruginosa CDC-0110 = experiment: microbe, parasite or virus in culture; type: cell-based; details: Pseudomonas aeruginosa, CDC0110, read-out: Minimum inhibitory concentration, P. aeruginosa CDC-0110
[3] = tested on: B. thailandensis ATCC 700388; experiment: microbe, parasite or virus in culture; type: cell-based; details: Burkholderia thailandensis, ATCC700388, read-out: Minimum inhibitory concentration (MIC), B. thailandensis ATCC 700388
N. gonorrhoeae CDC-0197 = experiment: Liquid broth MIC in Fastidious broth; details: Neisseria gonorrhoeae
A. baumannii CDC-0083 = experiment: microbe, parasite or virus in culture; type: cell-based; details: Acinetobacter baumannii, CDC0083, read-out: MIC, A. baumannii CDC-0083
P. aeruginosa CDC-0054 = experiment: microbe, parasite or virus in culture; type: cell-based; details: Pseudomonas aeruginosa, CDC0054, read-out: Minimum inhibitory concentration, P. aeruginosa CDC-0054
A. baumannii ATCC 19606 = experiment: microbe, parasite or virus in culture; type: cell-based; details: Acinetobacter baumannii, ATCC19606, read-out: MIC, A. baumannii ATCC 19606
[4] = MS11, read-out: Minimum Inhibitory Concentration (MIC), N. gonorrhoeae MS11
[5] = CDC0197, read-out: Minimum Inhibitory Concentration (MIC), N. gonorrhoeae CDC-0197
[6] = MS11, read-out: Minimum Inhibitory Concentration, MS11
[7] = CDC0197, read-out: Minimum Inhibitory Concentration, CDC-0197

Row | SMILES | MIC [1] [mg/L] | MIC (A. baumannii CDC-0045) [mg/L] | MIC (P. aeruginosa ATCC 35151) [mg/L] | MIC [2] [mg/L] | MIC (P. aeruginosa ATCC 27853) [mg/L] | MIC (N. gonorrhoeae MS11; [4]) [mg/L] | MIC (P. aeruginosa CDC-0110) [mg/L] | MIC [3] [mg/L] | MIC (N. gonorrhoeae CDC-0197; [5]) [mg/L] | MIC (A. baumannii CDC-0083) [mg/L] | MIC (P. aeruginosa CDC-0054) [mg/L] | MIC (A. baumannii ATCC 19606) [mg/L] | MIC (N. gonorrhoeae MS11; [6]) [mg/L] | MIC (N. gonorrhoeae CDC-0197; [7]) [mg/L]
1 | O=C(NCCCN1CCN(C(=O)NC(C(=O)N[C@H]2Cc3ccc(F)c(C(=O)O)c3OB2O)c2cc(F)c(O)c(O)c2Cl)C(=O)C1=O)Nc1cccc(O)c1 (stereo partly drawn) [Example 206, (3R)-3-(2-(2-chloro-5-fluoro-3,4-dihydroxyphenyl)-2-(4-(3-(3-(3-hydroxyphenyl)ureido)propyl)-2,3-dioxopiperazine-1-carboxamido)acetamido)-7-fluoro-2-hydroxy-3,4-dihydro-2H-benzo[e][1,2]oxaborinine-8-carboxylic acid] | < 1 | < 1 | < 1 | < 1 | 2 to 4 (≈ 2.58 to 5.16 µM) | 16 to 32 (≈ 20.6 to 41.3 µM) | < 1 | 2 to 4 (≈ 2.58 to 5.16 µM) | 16 to 32 (≈ 20.6 to 41.3 µM) | < 1 | < 1 | < 1 |  | 
2 | O=C(CN1CCN(C(=O)NC(C(=O)N[C@H]2Cc3ccc(F)c(C(=O)O)c3OB2O)c2cc(F)c(O)c(O)c2Cl)C(=O)C1=O)Nc1nccs1 (stereo partly drawn) [Example 235, (3R)-3-(2-(2-chloro-5-fluoro-3,4-dihydroxyphenyl)-2-(2,3-dioxo-4-(2-oxo-2-(thiazol-2-ylamino)ethyl)piperazine-1-carboxamido)acetamido)-7-fluoro-2-hydroxy-3,4-dihydro-2H-benzo[e][1,2]oxaborinine-8-carboxylic acid] | < 1 | 2 to 4 (≈ 2.77 to 5.53 µM) | < 1 | < 1 | 2 to 4 (≈ 2.77 to 5.53 µM) | 16 to 32 (≈ 22.1 to 44.3 µM) | < 1 | 8 to 16 (≈ 11.1 to 22.1 µM) | 16 to 32 (≈ 22.1 to 44.3 µM) | < 1 | 8 to 16 (≈ 11.1 to 22.1 µM) | < 1 |  | 
3 | O=C(NCCN1CCN(C(=O)NC(C(=O)N[C@H]2Cc3ccc(F)c(C(=O)O)c3OB2O)c2cc(F)c(O)c(O)c2Cl)C1=O)c1ccccc1 (stereo partly drawn) [Example 242, (3R)-3-(2-(3-(2-benzamidoethyl)-2-oxoimidazolidine-1-carboxamido)-2-(2-chloro-5-fluoro-3,4-dihydroxyphenyl)acetamido)-7-fluoro-2-hydroxy-3,4-dihydro-2H-benzo[e][1,2]oxaborinine-8-carboxylic acid] | 8 to 16 (≈ 11.4 to 22.8 µM) | < 1 | < 1 | < 1 | 2 to 4 (≈ 2.85 to 5.7 µM) | 16 to 32 (≈ 22.8 to 45.6 µM) | 2 to 4 (≈ 2.85 to 5.7 µM) | 2 to 4 (≈ 2.85 to 5.7 µM) | > 64 | 2 to 4 (≈ 2.85 to 5.7 µM) | 2 to 4 (≈ 2.85 to 5.7 µM) | < 1 |  | 
4 | O=C(CN1CCN(C(=O)NC(C(=O)N[C@H]2Cc3ccc(F)c(C(=O)O)c3OB2O)c2cc(F)c(O)c(O)c2Cl)C(=O)C1=O)Nc1ccncc1 (stereo partly drawn) [Example 233, (3R)-3-(2-(2-chloro-5-fluoro-3,4-dihydroxyphenyl)-2-(2,3-dioxo-4-(2-oxo-2-(pyridin-4-ylamino)ethyl)piperazine-1-carboxamido)acetamido)-7-fluoro-2-hydroxy-3,4-dihydro-2H-benzo[e][1,2]oxaborinine-8-carboxylic acid] | < 1 | 2 to 4 (≈ 2.79 to 5.58 µM) | < 1 | < 1 | < 1 | 16 to 32 (≈ 22.3 to 44.6 µM) | < 1 | 2 to 4 (≈ 2.79 to 5.58 µM) | 16 to 32 (≈ 22.3 to 44.6 µM) | < 1 | < 1 | < 1 |  | 
5 | O=C(CN1CCN(C(=O)NC(C(=O)N[C@H]2Cc3ccc(F)c(C(=O)O)c3OB2O)c2cc(F)c(O)c(O)c2Cl)C(=O)C1=O)Nc1ccccc1 (stereo partly drawn) [Example 232, (3R)-3-(2-(2-chloro-5-fluoro-3,4-dihydroxyphenyl)-2-(2,3-dioxo-4-(2-oxo-2-(phenylamino)ethyl)piperazine-1-carboxamido)acetamido)-7-fluoro-2-hydroxy-3,4-dihydro-2H-benzo[e][1,2]oxaborinine-8-carboxylic acid] | > 128 | 8 to 16 (≈ 11.2 to 22.4 µM) | < 1 | < 1 | 2 to 4 (≈ 2.79 to 5.59 µM) | 16 to 32 (≈ 22.4 to 44.7 µM) | 2 to 4 (≈ 2.79 to 5.59 µM) | < 1 | > 64 | > 128 | 2 to 4 (≈ 2.79 to 5.59 µM) | 2 to 4 (≈ 2.79 to 5.59 µM) |  | 
6 | O=C(NCCCN1CCN(C(=O)N[C@H](C(=O)N[C@H]2Cc3ccc(F)c(C(=O)O)c3OB2O)c2cc(F)c(O)c(O)c2Cl)C1=O)c1cccc(O)c1 [Example 254, (R)-3-((S)-2-(2-chloro-5-fluoro-3,4-dihydroxyphenyl)-2-(3-(3-(3-hydroxybenzamido)propyl)-2-oxoimidazolidine-1-carboxamido)acetamido)-7-fluoro-2-hydroxy-3,4-dihydro-2H-benzo[e][1,2]oxaborinine-8-carboxylic acid] | > 128 | > 128 | < 1 | > 128 | > 128 |  | > 128 | > 128 |  | > 128 | > 128 | 8 to 16 (≈ 10.9 to 21.9 µM) | > 64 | > 64
7 | O=C(NCCCN1CCN(C(=O)N[C@H](C(=O)N[C@H]2Cc3ccc(F)c(C(=O)O)c3OB2O)c2cc(F)c(O)c(O)c2Cl)C1=O)c1ccccc1 [Example 252, (R)-3-((S)-2-(3-(3-benzamidopropyl)-2-oxoimidazolidine-1-carboxamido)-2-(2-chloro-5-fluoro-3,4-dihydroxyphenyl)acetamido)-7-fluoro-2-hydroxy-3,4-dihydro-2H-benzo[e][1,2]oxaborinine-8-carboxylic acid] | > 128 | > 128 | 2 to 4 (≈ 2.79 to 5.59 µM) | > 128 | > 128 |  | > 128 | > 128 |  | > 128 | > 128 | > 128 | > 64 | > 64
8 | O=C(NCCN1CCN(C(=O)NC(C(=O)N[C@H]2Cc3ccc(F)c(C(=O)O)c3OB2O)c2cc(F)c(O)c(O)c2Cl)C(=O)C1=O)c1nccs1 (stereo partly drawn) [Example 218, (3R)-3-(2-(2-chloro-5-fluoro-3,4-dihydroxyphenyl)-2-(2,3-dioxo-4-(2-(thiazole-2-carboxamido)ethyl)piperazine-1-carboxamido)acetamido)-7-fluoro-2-hydroxy-3,4-dihydro-2H-benzo[e][1,2]oxaborinine-8-carboxylic acid] | 2 to 4 (≈ 2.71 to 5.43 µM) | 8 to 16 (≈ 10.9 to 21.7 µM) | < 1 | < 1 | 2 to 4 (≈ 2.71 to 5.43 µM) | 16 to 32 (≈ 21.7 to 43.4 µM) | 2 to 4 (≈ 2.71 to 5.43 µM) | 2 to 4 (≈ 2.71 to 5.43 µM) | 16 to 32 (≈ 21.7 to 43.4 µM) | 8 to 16 (≈ 10.9 to 21.7 µM) | 8 to 16 (≈ 10.9 to 21.7 µM) | 2 to 4 (≈ 2.71 to 5.43 µM) |  | 
9 | O=C(CN1CCN(C(=O)N[C@@H](C(=O)N[C@H]2Cc3ccc(F)c(C(=O)O)c3OB2O)c2cc(F)c(O)c(O)c2Cl)C(=O)C1=O)NCc1ccncc1 [Example 239, (R)-3-((R)-2-(2-chloro-5-fluoro-3,4-dihydroxyphenyl)-2-(2,3-dioxo-4-(2-oxo-2-((pyridin-4-ylmethyl)amino)ethyl)piperazine-1-carboxamido)acetamido)-7-fluoro-2-hydroxy-3,4-dihydro-2H-benzo[e][1,2]oxaborinine-8-carboxylic acid] | 32 to 64 (≈ 43.8 to 87.6 µM) | < 1 | < 1 | < 1 | 2 to 4 (≈ 2.74 to 5.47 µM) | 16 to 32 (≈ 21.9 to 43.8 µM) | < 1 | 8 to 16 (≈ 10.9 to 21.9 µM) | 16 to 32 (≈ 21.9 to 43.8 µM) | < 1 | 2 to 4 (≈ 2.74 to 5.47 µM) | < 1 |  | 
10 | O=C(CN1CCN(C(=O)NC(C(=O)N[C@H]2Cc3ccc(F)c(C(=O)O)c3OB2O)c2cc(F)c(O)c(O)c2Cl)C(=O)C1=O)NCc1ccc(O)cc1 (stereo partly drawn) [Example 236, (3R)-3-(2-(2-chloro-5-fluoro-3,4-dihydroxyphenyl)-2-(4-(2-((4-hydroxybenzyl)amino)-2-oxoethyl)-2,3-dioxopiperazine-1-carboxamido)acetamido)-7-fluoro-2-hydroxy-3,4-dihydro-2H-benzo[e][1,2]oxaborinine-8-carboxylic acid] | 2 to 4 (≈ 2.68 to 5.36 µM) | 8 to 16 (≈ 10.7 to 21.5 µM) |  |  |  |  |  | 8 to 16 (≈ 10.7 to 21.5 µM) |  | > 128 |  | < 1 |  | 
11 | O=C(CN1CCN(C(=O)NC(C(=O)N[C@H]2Cc3ccc(F)c(C(=O)O)c3OB2O)c2cc(F)c(O)c(O)c2Cl)C(=O)C1=O)NCc1ccccc1 (stereo partly shown) [Example 238] | > 128 |  | < 1 | < 1 | 2 to 4 (≈ 2.74 to 5.48 µM) | 16 to 32 (≈ 21.9 to 43.8 µM) | < 1 | 8 to 16 (≈ 11 to 21.9 µM) | 16 to 32 (≈ 21.9 to 43.8 µM) | > 128 | 2 to 4 (≈ 2.74 to 5.48 µM) | < 1 |  | 
